Results published in patent US11091460B2, “Syk inhibitor and use method therefor” (CHIA TAI TIANQING PHARMACEUTICAL GROUP CO., LTD., priority 2017, dated 2021).
Where two headings read alike, the source gives them in different places.

How the values were obtained:
SYK kinase = target: T1, SYK kinase (Homo sapiens, UniProt P43405); experiment: In vitro test of the inhibition effect on SYK kinase (HTRF); type: biochemical; details: tyrosine kinase 0.0156 ng/μL, substrate 0.2 uM, ATP 2 uM, 23° C. 1 hour, read-out: Inhibit SYK kinase IC50
T1 construct: purchased Invitrogen PV3857
Experimental: Experimental Example 1: In Vitro Test of the Inhibition Effect of the Example Compounds on SYK Kinase
Adenosine triphosphate concentration was controlled at 2 uM. • 4) Loaded with a Multidrop automatic dispenser, and a mixture of tyrosinase solution and tyrosine kinase-substrate-biotin/adenosine triphosphate was added in an amount of 5 ul per well, and incubated at 23° C. for 1 hour. • c) Detection phase: • 1) Added 13.33 mL of ethylenediaminetetraacetic acid solution to the Detection Buffer in the kit, added the specified amount of […] (Eu)-labeled antibody and streptavidin XL-665, and prepared the detection solution. • 2) Loaded with a Multidrop automatic dispenser, and 10 uL of the detection solution per well, incubated at 23° C. for 1 hour. It terminated the reaction of the enzyme and substrate mixture. • 3) Reading after centrifugation on a multi-function microplate reader, • d) Data Analysis: Analyzed the data with XL-Fit, and calculated the IC50 value of the compound.

AKT phosphorylation = experiment: In vitro test of the inhibition effect on AKT phosphorylation (ELISA, Ramos cells); type: cell-based
Experimental: Experimental Example 2: In Vitro Test of the Inhibition Effect of the Example Compounds on AKT Phosphorylation
• 2.1 Experimental Purpose: Intracellular protein kinase AKT phosphorylation detected by experiment was measured by enzyme-linked immunosorbent assay (ELISA), and the inhibition of the compound on protein kinase AKT phosphorylation was evaluated by an index of the half-cell inhibition concentration (IC50) value of the compound. • 2.2 Experimental Materials: • Cell line: Ramos cell line • Cell culture medium (RPMI1640, Invitrogen #22400-105; 10% serum Gibco #10099-141; L-glutamine 1×, Gibco #25030-081) • Experimental medium (without serum, RPM11640, Invitrogen #22400-105; L-glutamine 1×, Gibco #25030) • Lysis buffer (trishydroxymethylaminomethane hydrochloride, Invitrogen15567-1000 ml; sodium chloride, domestic; sodium deoxycholate, Sigma30970-25 G; polyethylene glycol octylphenyl ether, SigmaT9284-100 ml; dodecane sodium sulfonate, SigmaL3771; ethylenediaminetetraacetic acid, Invitrogen15575-038-100 ml; ultrapure water, MilliQ) • Protease inhibitor (Roche, 4693159001-30/BOX) • Phosphatase inhibitor mixture 2 (Sigma, P5726-5 ML) • Phosphatase inhibitor mixture 3 (Sigma, P0044-5 ML) • Goat Anti-Human immunoglobulin M (F(ab′)2 Goat Anti-Human IgM) (Jackson Immuno Research-109-006-129) • Phosphorylated AKT assay kit (Phospho-AKT 1/2/3 (ser473)) (TGR Bioscience, EKT002) • 10× Hank's balanced salt solution (Gibco #14065-056) • 96-well cell plate (Greiner #655090) • Compound V-well dilution plate (Axygen #WITP02280) • CO2 incubator (Thermo #371) • Centrifuge (Eppendorf #581 OR) • Vi-cell cell counter (Beckman Coulter) • Pipette (Eppendorf) • Pipette (Greiner) • Pipetting gun (Eppendorf) • Multi-purpose microplate reader (Envision Reader) • 2.3 Experimental procedures and methods: • a) Cell Seeding (Ramos Cells) • 1) The medium was preheated in a 37° C. water bath. Suspended cells and their culture solution were aspirated, centrifuged at 1000 rpm for 5 minutes. • 2) Aspirated the cell culture medium, added 10 mL of pre-warmed medium to the centrifuge tube, blew off the resuspended cells, pipette 1 mL of the cell suspension, and counted with Vi-cell; • 3) The Ramos cells were diluted with a medium to a density of 5×10^6/mL, and the diluted cells were added to a 96-well cell culture plate (100 μL/well) using a lance. Placed the cell plates in a 37° C., 5% CO2 incubator for overnight. • b) Cell starvation: • 1) After cultured the inoculation cells for overnight, centrifuged at 1000 rpm for 5 minutes on the next day, aspirated the original medium by a lance, added serum-free experimental medium, placed the cell plates in a 37° C., 5% CO2 incubator, and starved for overnight. • c) Compound preparation and dosing: • 1) The compound was diluted with dimethyl sulfoxide to give an initial concentration of 5 mM. A triple gradient dilution was done with compound V dilution plate to make 10 concentration points. • 2) Took another new compound V-well dilution plate, added 198 ul of serum-free experimental medium to each well, and then added 2 ul of the diluted compound above to each well, and mixed with a lance. […]

[1] = Homo sapiens, Ramos, Ramos cell line, compound 1 hour, goat anti-human IgM 10 ug/ml for 10 minutes, Phospho-AKT 1/2/3 (ser473) ELISA, read-out: Inhibit AKT phosphorylation IC50

SMILES	IC50 (SYK kinase) [nM]	IC50 (AKT phosphorylation; [1]) [nM]	IC50 (AKT phosphorylation; Ramos cell line, compound 1 hour, goat anti-human IgM 10 ug/ml for 10 minutes, Phospho-AKT 1/2/3 (ser473) ELISA, read-out: Inhibit AKT phosphorylation IC50) [nM]	IC50 (AKT phosphorylation; Homo sapiens, Ramos, read-out: Inhibit AKT phosphorylation IC50 (nM)) [nM]
Cn1c(=O)c(Nc2ccc(N3CCOCC3)cc2)nc2c(Cl)cc(-c3cn[nH]c3)cc21 [Example 41, 5-Chloro-1-methyl-3-((4-morpholinephenyl)amino)-7-(1H-pyrazol-4-yl)quinoxaline-2(1H)-one]	4.8	98.8	–	–
Cn1c(=O)c(Nc2ccc(C3(F)COC3)cn2)cc2c(F)c(-c3cc[nH]n3)ccc21 [Example 23, 5-Fluoro-3-[[5-(3-fluorooxetan-3-yl)pyridin-2-yl]amino]-1-methyl-6-(1H-pyrazol-3-yl)quinoline-2(1H)-one]	26.9	169	–	–
Cn1c(=O)c(Nc2ccc(N3CCOCC3)cn2)cc2cc(-c3cc[nH]n3)ccc21 [Example 2, 1-Methyl-3-((5-morpholinepyridin-2-yl)amino)-6-(1H-pyrazol-3-yl)quinoline-2(1H)-one]	204	–	750	–
Cn1c(=O)c(Nc2ccc(N3CCOCC3)cn2)cc2c(Cl)c(-c3cc[nH]n3)ccc21 [Example 7, 5-Chloro-1-methyl-3-((5-morpholinepyridin-2-yl)amino)-6-(1H-pyrazol-3-yl)quinoline-2(1H)-one]	10.3	211	–	–
Cn1c(=O)c(Nc2ccc(N3CCOCC3)cn2)cc2cc(-c3cc[nH]n3)c(F)cc21 [Example 6, 7-Fluoro-1-methyl-3-((5-morpholinepyridin-2-yl)amino)-6-(1H-pyrazol-3-yl)quinoline-2(1H)-one]	21.1	–	–	446
Cn1c(=O)c(Nc2ccc(N3CCNCC3)cc2)nc2ccc(-c3cn[nH]c3)cc21 [Example 39, 1-Methyl-3-((4-(piperazin-1-yl)phenyl)amino)-7-(1H-pyrazol-4-yl)quinoxaline-2(1H)-one]	3.6	60.1	–	–
Cn1c(=O)c(Nc2ccc(S(=O)(=O)N3CCCCC3)cc2)nc2ccc(-c3cn[nH]c3)cc21 [Example 38, 1-Methyl-3-((4-(piperidin-1-ylsulfonyl)phenyl)amino)-7-(1H-pyrazol-4-yl)quinoxaline-2(1H)-one]	40	343	–	–
Cn1c(=O)c(Nc2ccc(N)cn2)cc2c(F)c(-c3cc[nH]n3)ccc21 [Example 16, 3-((5-Aminopyridin-2-yl)amino)-5-fluoro-1-methyl-6-(1H-pyrazol-3-yl)quinoline-2(1H)-one]	47.9	197	–	–
Cn1c(=O)c(Nc2ccc(N3CCOCC3)cc2)nc2cc(F)c(-c3cn[nH]c3)cc21 [Example 45, 6-Fluoro-1-methyl-3-((4-morpholinephenyl)amino)-7-(1H-pyrazol-4-yl)quinoxaline-2(1H)-one]	20.2	83.3	–	–
